ChEMBL document CHEMBL5331114, “Discovery of Pyxinol Amide Derivatives Bearing Amino Acid Residues as Nonsubstrate Allosteric Inhibitors of P-Glycoprotein-Mediated Multidrug Resistance” (J Med Chem, 2023)

Assays:
P-gp (ABCB1) ATPase = P-gp (ABCB1) ATPase (Homo sapiens, UniProt P08183); assay: Negative allosteric modulator activity at human P-gp ATP synthase hydrolytic activity assessed as inhibition of Vrp-stimulated Pgp-ATPase activity at 25 uM incubated for 60 mins in presence of ATP by Glo-luminescence based microplate reader assay relative to DMSO; details: probe Vrp (stimulator of the ATPase activity)
P-gp (ABCB1) ATPase, sequence (P08183 whole entry): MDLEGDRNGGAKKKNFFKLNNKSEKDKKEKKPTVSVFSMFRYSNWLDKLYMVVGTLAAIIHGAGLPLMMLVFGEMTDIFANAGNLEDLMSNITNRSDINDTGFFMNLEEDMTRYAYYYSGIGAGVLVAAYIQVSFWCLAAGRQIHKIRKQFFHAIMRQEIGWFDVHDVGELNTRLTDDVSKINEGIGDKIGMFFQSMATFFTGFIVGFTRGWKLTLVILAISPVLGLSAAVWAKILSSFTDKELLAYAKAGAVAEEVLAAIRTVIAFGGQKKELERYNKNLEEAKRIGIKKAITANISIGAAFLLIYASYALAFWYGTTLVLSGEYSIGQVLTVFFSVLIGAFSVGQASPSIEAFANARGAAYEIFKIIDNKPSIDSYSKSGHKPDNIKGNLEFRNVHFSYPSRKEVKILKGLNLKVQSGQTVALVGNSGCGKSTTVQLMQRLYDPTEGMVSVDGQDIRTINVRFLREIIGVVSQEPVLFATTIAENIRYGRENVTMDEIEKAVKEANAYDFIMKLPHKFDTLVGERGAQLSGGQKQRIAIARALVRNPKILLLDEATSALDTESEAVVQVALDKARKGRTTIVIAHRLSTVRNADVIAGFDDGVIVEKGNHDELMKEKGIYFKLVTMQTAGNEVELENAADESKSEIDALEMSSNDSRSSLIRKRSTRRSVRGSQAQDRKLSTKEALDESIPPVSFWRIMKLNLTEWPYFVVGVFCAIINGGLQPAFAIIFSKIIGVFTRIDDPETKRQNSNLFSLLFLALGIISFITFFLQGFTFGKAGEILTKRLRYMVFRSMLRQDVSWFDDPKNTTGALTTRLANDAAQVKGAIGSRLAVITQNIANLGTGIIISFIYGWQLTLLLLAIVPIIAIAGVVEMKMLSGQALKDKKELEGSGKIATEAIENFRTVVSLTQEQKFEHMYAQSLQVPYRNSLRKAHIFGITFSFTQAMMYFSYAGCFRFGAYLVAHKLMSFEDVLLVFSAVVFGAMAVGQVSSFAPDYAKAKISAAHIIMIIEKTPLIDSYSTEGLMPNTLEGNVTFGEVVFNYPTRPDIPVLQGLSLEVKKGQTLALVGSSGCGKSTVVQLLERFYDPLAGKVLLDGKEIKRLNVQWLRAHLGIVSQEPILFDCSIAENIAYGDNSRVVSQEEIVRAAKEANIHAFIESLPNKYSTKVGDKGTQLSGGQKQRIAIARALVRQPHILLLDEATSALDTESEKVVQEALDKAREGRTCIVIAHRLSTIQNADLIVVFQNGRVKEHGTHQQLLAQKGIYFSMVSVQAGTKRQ

[1] = Induction of Ptx-mediated cell cycle arrest in human KBV cells assessed as accumulation of cells at G2-M phase at 5 uM incubated for 24 hrs in presence of paclitaxel by flow cytometry analysis (Rvb =25.34 +/- 0.92%); format: functional
[2] = Induction of cell cycle arrest in human KBV cells assessed as accumulation of cells at Sub-G1 phase at 10 uM incubated for 24 hrs by flow cytometry analysis (reference value: 1.24 +/- 0.14%); format: functional
[3] = Induction of cell cycle arrest in human KBV cells assessed as accumulation of cells at G1-G0 phase at 5 uM incubated for 24 hrs by flow cytometry analysis (reference value: 62.34 +/- 0.24%); format: functional
[4] = Induction of Ptx-mediated cell cycle arrest in human KBV cells assessed as accumulation of cells at G1-G0 phase at 5 uM incubated for 24 hrs in presence of paclitaxel by flow cytometry analysis (Rvb =57.76 +/- 0.78%); format: functional
[5] = Induction of cell cycle arrest in human KBV cells assessed as accumulation of cells at S phase at 10 uM incubated for 24 hrs by flow cytometry analysis (reference value: 12.42 +/- 0.41%); format: functional
[6] = target: ATP-dependent translocase ABCB1 (Homo sapiens, UniProt P08183); assay: Negative allosteric modulator activity at human P-gp ATP synthase hydrolytic activity assessed as inhibition of basal Pgp-ATPase activity at 0.5 mM incubated for 60 mins in presence of ATP by Glo-luminescence based microplate reader assay; details: 1 h, 500 µM
ATP-dependent translocase ABCB1, sequence (P08183 whole entry): as above

[7] = Reversal of multidrug resistance in human KBV Cells assessed as reversal fold of paclitaxel IC50 at 5 uM incubated for 72 hrs in presence of paclitaxel by MTT assay; format: functional

With `CC(C)(O)[C@H]1CC[C@@](C)([C@H]2CC[C@]3(C)[C@@H]2[C@H](O)C[C@@H]2[C@@]4(C)CC[C@H](NC(=O)[C@@H]5CCCN5)C(C)(C)[C@@H]4CC[C@]23C)O1` as the compound, how does the inhibition at 1 h, 25 µM (P-gp (ABCB1) ATPase) read?
Its inhibition at 1 h, 25 µM is 60%.

And the Activity [1]?
Its Activity is 31.28%.

And the Activity [2]?
The Activity was 1%.

What about the Activity [3] of the same compound?
Its Activity is 59.58%.

And the Activity [4]?
The Activity was 45.93%.

What about the Activity [5] of the same compound?
Its Activity is 13.74%.

And the “inhibition (INH)” value [6]?
Its value is “Not Active”.

What about the “fold change (FC)” value [7] of the same compound?
The value was 21.
